Legend:
P2X7 [1] = biological target: T1, P2X7 (Homo sapiens (Human), UniProt Q99572); assay: Radioligand binding, tritiated A-804598, human P2X7-1321N1 cell membranes; conditions: 1 hour at 4° C.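 Also: ki obtained from the binding IC50 after correction for tracer concentration and tracer affinity.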
Experimental: On the day of the experiment, cell membrane preparations were made according to standard published methods. […] The assay was terminated by filtration (GF/B filters pre-soaked with 0.3% PEI) and washed with washing buffer (Tris-HCl 50 mM). The IC50 generated in the binding assay was corrected for tracer concentration and affinity of the tracer to derive at the affinity (Ki) of the test compounds.

rat P2X7 = rat P2X7 (Rattus norvegicus (Rat), UniProt Q64663); assay: Ca2+ flux (FLIPR) in 1321N1 cells expressing recombinant rat P2X7 channel; format: cell-based; conditions: 250 μM BzATP;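 also: Calcium-4 dye fluorescence change read 180 s after agonist addition, following 30 min cell preincubation with test compound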
P2X7 [2] = biological target: T1, P2X7; assay: Ca2+ flux (FLIPR) in 1321N1 cells expressing recombinant human P2X7 channel; format: cell-based; conditions: 250 μM BzATP;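 also: Calcium-4 dye-loaded cells exposed to compound for 30 min before agonist addition, fluorescence change read 180 s after agonist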
P2X7 [3] = biological target: T1, P2X7; assay: P2X7 antagonism in human PBMCs (LPS + Bz-ATP induced IL-1β release, ELISA); format: cell-based; conditions: LPS 30 ng/ml, Bz-ATP 0.5 mM; for PBMC 1 μM (% control): compound 1 μM; for PBMC 10 μM (% control): compound 10 μM;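 as to all read-outs here: PBMCs from donor human blood, with a further 1.5 h incubation of the cells in the assay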

Chain of rat P2X7 (Q64663 whole entry): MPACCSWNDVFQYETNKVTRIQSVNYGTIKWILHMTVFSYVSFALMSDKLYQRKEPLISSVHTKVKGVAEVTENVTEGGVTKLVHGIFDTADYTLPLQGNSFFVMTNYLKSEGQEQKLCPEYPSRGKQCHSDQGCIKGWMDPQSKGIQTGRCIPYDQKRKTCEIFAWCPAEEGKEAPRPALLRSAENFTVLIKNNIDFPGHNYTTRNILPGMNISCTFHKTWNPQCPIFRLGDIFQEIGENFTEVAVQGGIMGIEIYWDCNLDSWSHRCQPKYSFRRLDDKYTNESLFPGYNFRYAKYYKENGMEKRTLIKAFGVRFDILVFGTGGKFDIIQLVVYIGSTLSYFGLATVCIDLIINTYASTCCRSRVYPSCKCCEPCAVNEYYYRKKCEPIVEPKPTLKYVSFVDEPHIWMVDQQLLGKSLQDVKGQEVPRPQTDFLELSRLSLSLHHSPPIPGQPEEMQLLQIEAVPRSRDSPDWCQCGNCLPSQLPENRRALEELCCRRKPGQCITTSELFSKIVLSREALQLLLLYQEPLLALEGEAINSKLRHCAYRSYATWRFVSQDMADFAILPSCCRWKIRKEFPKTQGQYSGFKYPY
T1 sequence (Q99572 whole entry): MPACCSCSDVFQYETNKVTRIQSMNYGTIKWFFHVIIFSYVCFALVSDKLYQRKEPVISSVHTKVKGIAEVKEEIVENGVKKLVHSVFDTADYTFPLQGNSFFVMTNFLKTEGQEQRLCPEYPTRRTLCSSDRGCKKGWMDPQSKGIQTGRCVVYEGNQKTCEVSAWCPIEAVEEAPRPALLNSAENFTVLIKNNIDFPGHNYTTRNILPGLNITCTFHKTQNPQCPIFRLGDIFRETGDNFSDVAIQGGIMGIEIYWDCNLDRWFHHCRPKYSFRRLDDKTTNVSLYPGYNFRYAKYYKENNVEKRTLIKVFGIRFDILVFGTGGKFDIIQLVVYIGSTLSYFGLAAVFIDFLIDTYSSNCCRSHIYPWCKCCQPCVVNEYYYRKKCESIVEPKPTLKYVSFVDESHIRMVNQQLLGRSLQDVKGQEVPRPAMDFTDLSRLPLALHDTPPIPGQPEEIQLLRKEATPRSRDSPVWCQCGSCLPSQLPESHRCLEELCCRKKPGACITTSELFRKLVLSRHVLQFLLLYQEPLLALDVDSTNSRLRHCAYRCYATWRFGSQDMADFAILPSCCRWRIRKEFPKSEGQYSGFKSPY

| Ki (P2X7 [1]) [nM] | IC50 (rat P2X7) [nM] | IC50 (P2X7 [2]) [nM] | PBMC 1 μM (% control) (P2X7 [3]) | PBMC 10 μM (% control) (P2X7 [3]) | SMILES |
| --- | --- | --- | --- | --- | --- |
| 91.2 | 34.2 | 35 | 2.9 |  | CCOC(=O)C1c2ncn(-c3ccccn3)c2CCN1C(=O)c1cccc(C(F)(F)F)c1Cl (stereo not shown) [Example 24, Ethyl 5-(2-chloro-3-(trifluoromethyl)benzoyl)-1-(pyridin-2-yl)-4,5,6,7-tetrahydro-1H-imidazo[4,5-c]pyridine-4-carboxylate] |
| 9.1 | 42.3 | 6.2 |  | −1.0 | Cc1ccnc(-n2nnc3c2CCN(C(=O)c2cccc(Cl)c2Cl)C3C)n1 (stereo not shown) [Example 225, (2,3-dichlorophenyl)(4-methyl-1-(4-methylpyrimidin-2-yl)-6,7-dihydro-1H-[1,2,3]triazolo[4,5-c]pyridin-5(4H)-yl)methanone] |
| 398 | 20200 | 171 |  | −1.8 | Cc1cc(C)nc(-n2nnc3c2CCN(C(=O)c2cccc(C(F)(F)F)c2Cl)C3C)c1 (stereo not shown) [Example 300, (2-chloro-3-(trifluoromethyl)phenyl)(1-(4,6-dimethylpyridin-2-yl)-4-methyl-6,7-dihydro-1H-[1,2,3]triazolo[4,5-c]pyridin-5(4H)-yl)methanone] |
| 43.7 | 4280 | 76.2 | 5.2 |  | O=C(c1cccc(Cl)c1Cl)N1CCc2c(nnn2-c2ccccc2)C1 [Example 62, 5-[(2,3-Dichlorophenyl)carbonyl]-1-phenyl-4,5,6,7-tetrahydro-1H-[1,2,3]triazolo[4,5-c]pyridine] |
| 11.5 | 438 | 8.6 |  | −16.9 | CC1c2nnn(-c3cnccn3)c2CCN1C(=O)c1ccc(Cl)cc1Cl (stereo not shown) [Example 279, (2,4-dichlorophenyl)(4-methyl-1-(pyrazin-2-yl)-6,7-dihydro-1H-[1,2,3]triazolo[4,5-c]pyridin-5(4H)-yl)methanone] |
| 31.6 | 324 | 12.4 |  | 11.6 | O=C(c1cccc(C(F)(F)F)c1Cl)N1CCc2c(ncn2-c2ccn[nH]2)C1 [Example 5, (1-(1H-Pyrazol-5-yl)-6,7-dihydro-1H-imidazo[4,5-c]pyridin-5(4H)-yl)(2-chloro-3-(trifluoromethyl)phenyl)methanone] |
| 10 | 9.5 | 8.1 |  | −50.8 | CC1Cc2c(-c3ccn[nH]3)n[nH]c2CN1C(=O)c1cccc(C(F)(F)F)c1Cl (stereo not shown) [Example 267, (2-chloro-3-(trifluoromethyl)phenyl)(5-methyl-3-(1H-pyrazol-5-yl)-4,5-dihydro-1H-pyrazolo[3,4-c]pyridin-6(7H)-yl)methanone] |
| 11.2 | 6.5 | 3.2 |  | −0.2 | CC1Cc2c(nnn2-c2ccccn2)CN1C(=O)c1ccc(F)c(Cl)c1Cl (stereo not shown) [Example 121, 5-[(2,3-Dichloro-4-fluorophenyl)carbonyl]-6-methyl-1-pyridin-2-yl-4,5,6,7-tetrahydro-1H-[1,2,3]triazolo[4,5-c]pyridine] |
| 50.1 | 4430 | 78.3 |  | 3.8 | Cc1c(C(=O)N2CCc3c(nnn3-c3ccccn3)C2)ccc(F)c1F [Example 132, (3,4-Difluoro-2-methylphenyl)(1-(pyridin-2-yl)-6,7-dihydro-1H-[1,2,3]triazolo-[4,5-c]pyridin-5(4H)-yl)methanone] |
| 63.1 | 108 | 73.5 |  | 5.9 | CC1c2nnn(-c3ccc(F)cc3)c2C=CN1C(=O)c1cccc(C(F)(F)F)c1Cl (stereo not shown) [Example 81, 5-{[2-Chloro-3-(trifluoromethyl)phenyl]carbonyl}-1-(4-fluorophenyl)-4-methyl-4,5-dihydro-1H-[1,2,3]triazolo[4,5-c]pyridine] |

Reference: patent US9464084B2, “P2X7 modulators” (Janssen Pharmaceutica NV, priority 2013, dated 2016)
